Measured values reported in US9339531B2, “Recognition of CYP2E1 epitopes” (The Johns Hopkins University, priority 2009, dated 2016).
Like-named read-outs stand apart in the source and are kept apart here. Peptide text beside a SMILES is read from it.

System: splenocytes from TFA-S100 immunized BALB/c mice
Conditions: for activation of T cells (splenocyte proliferation, 3H thymidine incorporation / proliferation index): 0.1, 0.5 or 1 ug/mL epitope, splenocytes two weeks after TFA-S100 immunization; for recognition by DILI-specific T cells and B cells: summary of mouse splenocyte proliferation and human serum ELISA
Protocol: FIG. 4. Splenocyte proliferation assays with candidate CYP2E1 epitopes.
As described above, BALB/c mice were immunized with TFA-S100. Splenocytes from BALB/c mice immunized with S100 in CFA plus PT or CFA and PT alone were used as controls. Splenocyte isolation was performed using basic immunological techniques. Briefly, spleens were harvested two weeks after immunization. Spleens were mashed between two frosted glass slides, and tissue debris was removed by filtering the sample through a 70 μm cell strainer. The remaining cells were washed with sterile phosphate buffered saline/2% fetal calf serum (PBS/2% FCS) and centrifuged at 1500 rpm for 10 minutes using a refrigerated desktop centrifuge. Red cells were lysed using ACK lysing buffer. The remaining cells were washed with RPMI-10% HEPES and filtered through a 70 μm cell strainer. The splenocytes were stored in RPMI complete media with 10% FCS (RPMI-10) at a final concentration of 2.5 million cells per 1 mL of media.
For the proliferation assays, 2.5×10^5 splenocytes (100 μl) were added to each well of a 96 well plate with 0.1 μg/mL, 0.5 μg/mL, or 1 μg/mL of a candidate epitope. As controls, media or concanavalin A (Con A) were also tested in the proliferation assays. Plates were incubated for 3 days at 37° C., 5% CO2, 95% air (humidified). Six to 18 hours prior to the 72 hour time point, the splenocytes were pulsed with 1 μCi/well ^3H thymidine (0.25 mCi/0.25 ml stock). Specifically, a 1:10 dilution (0.1 mCi/ml) of the ^3H thymidine stock solution is made by adding 200 μl of ^3H thymidine stock solution to 1800 μl of sterile RPMI. 10 μl (1 μCi) of diluted ^3H thymidine was pipetted into each well. The cells were incubated for […]. After incubation, cells were placed in −20° C. for up to 45 minutes to stop the incorporation of ^3H thymidine into proliferating cells. The splenocytes were analyzed and ^3H incorporation, an indicator of cellular proliferation, was measured.

Compound	activation of T cells (splenocyte proliferation, 3H thymidine incorporation / proliferation index)	recognition by DILI-specific T cells and B cells	recognition by DILI-specific T cells and B cells (listed as Gly^113-Leu^133)
CC(C)C[C@H](NC(=O)[C@H](CC(C)C)NC(=O)[C@H](CC(C)C)NC(=O)[C@H](Cc1ccccc1)NC(=O)[C@H](C)NC(=O)[C@H](C)NC(=O)[C@H](Cc1c[nH]c2ccccc12)NC(=O)[C@@H](NC(=O)[C@H](CC(C)C)NC(=O)[C@H](CC(C)C)NC(=O)[C@H](C)NC(=O)[C@@H](NC(=O)[C@@H](NC(=O)[C@@H](NC(=O)CNC(=O)[C@H](CC(C)C)NC(=O)[C@H](C)NC(=O)[C@@H](N)CO)C(C)C)[C@@H](C)O)C(C)C)C(C)C)C(=O)O [JHDN1] (H-SALGVTVALLVWAAFLLL-OH)	able to activate T cells		
CC[C@H](C)[C@H](NC(=O)CN)C(=O)N[C@H](C(=O)N[C@@H](Cc1ccccc1)C(=O)N[C@@H](CC(N)=O)C(=O)N[C@@H](CC(N)=O)C(=O)NCC(=O)N1CCC[C@H]1C(=O)N[C@H](C(=O)N[C@@H](Cc1c[nH]c2ccccc12)C(=O)N[C@@H](CCCCN)C(=O)N[C@@H](CC(=O)O)C(=O)N[C@H](C(=O)N[C@@H](CCCNC(=N)N)C(=O)N[C@@H](CCCNC(=N)N)C(=O)N[C@@H](Cc1ccccc1)C(=O)N[C@@H](CO)C(=O)N[C@@H](CC(C)C)C(=O)N[C@H](C(=O)N[C@H](C(=O)N[C@@H](CC(C)C)C(=O)O)[C@@H](C)O)[C@@H](C)O)[C@@H](C)CC)[C@@H](C)O)[C@@H](C)CC [JHDN5] (H-GIIFNNGPTWKDIRRFSLTTL-OH)	able to activate T cells	only candidate epitope that is recognized by DILI-specific T cells	recognized by DILI-specific T cells and B cells
